Results reported in patent publication US20120329787A1, “FUNGICIDAL PYRANONES AND OXAZINONES” (E.I. DU PONT DE NEMOURS AND COMPANY, priority 2011, published 2012).
Marks after values point to notes of the source that are not given here.

Legend:
Type in all cases: in vivo
[1] = system: Botrytis cinerea; assay: Test A: tomato Botrytis, spray on tomato seedlings the day before inoculation
From the text: General protocol for preparing test suspensions for Tests A-I: the test compounds were first dissolved in acetone in an amount equal to 3% of the final volume and then suspended at the desired concentration (in ppm) in acetone and purified water (50/50 mix by volume) containing 250 ppm of the surfactant Trem® 014 (polyhydric alcohol esters). The resulting test suspensions were then used in Tests A-I. Spraying a 200 ppm test suspension to the point of run-off on the test plants was the equivalent of a rate of 500 g/ha. […] (An asterisk “*” next to the rating value indicates a 40 ppm test suspension was used.) The test suspension was sprayed to the point of run-off on tomato seedlings. The following day, the seedlings were inoculated with a spore suspension of Botrytis cinerea (the causal agent of tomato Botrytis) and incubated in a saturated atmosphere at 20° C. for 48 h, and then moved to a growth chamber at 24° C. for 3 additional days, after which time visual disease ratings were made. […] A dash (-) indicates no test results. All results are for 200 ppm except where followed by an asterisk “*”, which indicates a 40 ppm.

[2] = system: Alternaria solani; assay: Test B: tomato early blight, spray on tomato seedlings the day before inoculation
From the text: General protocol for preparing test suspensions for Tests A-I: the test compounds were first dissolved in acetone in an amount equal to 3% of the final volume and then suspended at the desired concentration (in ppm) in acetone and purified water (50/50 mix by volume) containing 250 ppm of the surfactant Trem® 014 (polyhydric alcohol esters). The resulting test suspensions were then used in Tests A-I. Spraying a 200 ppm test suspension to the point of run-off on the test plants was the equivalent of a rate of 500 g/ha. […] (An asterisk “*” next to the rating value indicates a 40 ppm test suspension was used.) The test suspension was sprayed to the point of run-off on tomato seedlings. The following day, the seedlings were inoculated with a spore suspension of Alternaria solani (the causal agent of tomato early blight) and incubated in a saturated atmosphere at 27° C. for 48 h, and then moved to a growth chamber at 20° C. for 5 days, after which time visual disease ratings were made. […] A dash (-) indicates no test results. All results are for 200 ppm except where followed by an asterisk “*”, which indicates a 40 ppm.

[3] = system: Septoria nodorum; assay: Test E: Septoria glume blotch, spray on wheat seedlings the day before inoculation
From the text: General protocol for preparing test suspensions for Tests A-I: the test compounds were first dissolved in acetone in an amount equal to 3% of the final volume and then suspended at the desired concentration (in ppm) in acetone and purified water (50/50 mix by volume) containing 250 ppm of the surfactant Trem® 014 (polyhydric alcohol esters). The resulting test suspensions were then used in Tests A-I. Spraying a 200 ppm test suspension to the point of run-off on the test plants was the equivalent of a rate of 500 g/ha. […] (An asterisk “*” next to the rating value indicates a 40 ppm test suspension was used.) The test suspension was sprayed to the point of run-off on wheat seedlings. […] A dash (-) indicates no test results. All results are for 200 ppm except where followed by an asterisk “*”, which indicates a 40 ppm.

[4] = system: Septoria tritici; assay: Test F: wheat leaf blotch, spray on wheat seedlings the day before inoculation
From the text: General protocol for preparing test suspensions for Tests A-I: the test compounds were first dissolved in acetone in an amount equal to 3% of the final volume and then suspended at the desired concentration (in ppm) in acetone and purified water (50/50 mix by volume) containing 250 ppm of the surfactant Trem® 014 (polyhydric alcohol esters). The resulting test suspensions were then used in Tests A-I. Spraying a 200 ppm test suspension to the point of run-off on the test plants was the equivalent of a rate of 500 g/ha. […] (An asterisk “*” next to the rating value indicates a 40 ppm test suspension was used.) The test suspension was sprayed to the point of run-off on wheat seedlings. The following day, the seedlings were inoculated with a spore suspension of Septoria tritici (the causal agent of wheat leaf blotch) and incubated in a saturated atmosphere at 24° C. for 48 h, and then the seedlings were moved to a growth chamber at 20° C. for 19 additional days, after which time visual disease ratings were made. […] A dash (-) indicates no test results. All results are for 200 ppm except where followed by an asterisk “*”, which indicates a 40 ppm.

[5] = system: Puccinia recondita f. sp. tritici; assay: Test G: wheat leaf rust, spray on wheat seedlings after inoculation (curative); settings: sprayed after inoculation
From the text: General protocol for preparing test suspensions for Tests A-I: the test compounds were first dissolved in acetone in an amount equal to 3% of the final volume and then suspended at the desired concentration (in ppm) in acetone and purified water (50/50 mix by volume) containing 250 ppm of the surfactant Trem® 014 (polyhydric alcohol esters). The resulting test suspensions were then used in Tests A-I. Spraying a 200 ppm test suspension to the point of run-off on the test plants was the equivalent of a rate of 500 g/ha. […] (An asterisk “*” next to the rating value indicates a 40 ppm test suspension was used.) Wheat seedlings were inoculated with a spore suspension of Puccinia recondita f. sp. tritici (the causal agent of wheat leaf rust) and incubated in a saturated atmosphere at 20° C. for 24 h, and then moved to a growth chamber at 20° C. for 2 days. At the end of this time, the test suspension was sprayed to the point of run-off, and then the seedlings were moved to a growth chamber at 20° C. for 4 days after which time visual disease ratings were made. […] A dash (-) indicates no test results. All results are for 200 ppm except where followed by an asterisk “*”, which indicates a 40 ppm.

[6] = system: Puccinia recondita f. sp. tritici; assay: Test H: wheat leaf rust, spray on wheat seedlings the day before inoculation; settings: sprayed before inoculation
From the text: General protocol for preparing test suspensions for Tests A-I: the test compounds were first dissolved in acetone in an amount equal to 3% of the final volume and then suspended at the desired concentration (in ppm) in acetone and purified water (50/50 mix by volume) containing 250 ppm of the surfactant Trem® 014 (polyhydric alcohol esters). The resulting test suspensions were then used in Tests A-I. Spraying a 200 ppm test suspension to the point of run-off on the test plants was the equivalent of a rate of 500 g/ha. […] (An asterisk “*” next to the rating value indicates a 40 ppm test suspension was used.) The test suspension was sprayed to the point of run-off on wheat seedlings. The following day, the seedlings were inoculated with a spore suspension of Puccinia recondita f. sp. tritici (the causal agent of wheat leaf rust) and incubated in a saturated atmosphere at 20° C. for 24 h, and then moved to a growth chamber at 20° C. for 6 days, after which time visual disease ratings were made Results for Tests A-I are given in Table A. […] A dash (-) indicates no test results. All results are for 200 ppm except where followed by an asterisk “*”, which indicates a 40 ppm.

[7] = system: Erysiphe graminis f. sp. tritici; assay: Test I: wheat powdery mildew, spray on wheat seedlings the day before inoculation; settings: 200 ppm test suspension
From the text: General protocol for preparing test suspensions for Tests A-I: the test compounds were first dissolved in acetone in an amount equal to 3% of the final volume and then suspended at the desired concentration (in ppm) in acetone and purified water (50/50 mix by volume) containing 250 ppm of the surfactant Trem® 014 (polyhydric alcohol esters). The resulting test suspensions were then used in Tests A-I. Spraying a 200 ppm test suspension to the point of run-off on the test plants was the equivalent of a rate of 500 g/ha. […] (An asterisk “*” next to the rating value indicates a 40 ppm test suspension was used.) The test suspension was sprayed to the point of run-off on wheat seedlings. The following day, the seedlings were inoculated with a spore dust of Erysiphe graminis f. sp. tritici, (the causal agent of wheat powdery mildew) and incubated in a growth chamber at 20° C. for 7 days, after which time visual disease ratings were made. […] A dash (-) indicates no test results. All results are for 200 ppm except where followed by an asterisk “*”, which indicates a 40 ppm.

[8] = 40 ppm test suspension (asterisk)

Row | SMILES | Test A rating (100 = 100% disease control, 0 = no disease control) ([1]; 200 ppm test suspension) [%] | Test B rating (100 = 100% disease control, 0 = no disease control) ([2]; 200 ppm test suspension) [%] | Test E rating (100 = 100% disease control, 0 = no disease control) ([3]; 200 ppm test suspension) [%] | Test F rating (100 = 100% disease control, 0 = no disease control) ([4]; 200 ppm test suspension) [%] | Test G rating (100 = 100% disease control, 0 = no disease control) ([5]; 200 ppm test suspension) [%] | Test H rating (100 = 100% disease control, 0 = no disease control) ([6]; 200 ppm test suspension) [%] | Test I rating (100 = 100% disease control, 0 = no disease control) [7] [%] | pest or weed control at 200 ppm ([1]; Botrytis cinerea, 120 h, 200 ppm test suspension, read-out: Test A rating (100 = 100% disease control, 0 = no disease control)) [%] | pest or weed control at 200 ppm ([2]; Alternaria solani, 168 h, 200 ppm test suspension, read-out: Test B rating (100 = 100% disease control, 0 = no disease control)) [%] | pest or weed control at 200 ppm ([3]; Parastagonospora nodorum, 264 h, 200 ppm test suspension, read-out: Test E rating (100 = 100% disease control, 0 = no disease control)) [%] | pest or weed control at 200 ppm ([4]; Zymoseptoria tritici, 504 h, 200 ppm test suspension, read-out: Test F rating (100 = 100% disease control, 0 = no disease control)) [%] | pest or weed control at 200 ppm ([5]; Puccinia recondita, 96 h, 200 ppm test suspension, read-out: Test G rating (100 = 100% disease control, 0 = no disease control)) [%] | pest or weed control at 200 ppm ([6]; Puccinia recondita, 168 h, 200 ppm test suspension, read-out: Test H rating (100 = 100% disease control, 0 = no disease control)) [%] | pest or weed control at 200 ppm ([7]; Blumeria graminis, 168 h, read-out: Test I rating (100 = 100% disease control, 0 = no disease control)) [%] | Test A rating (100 = 100% disease control, 0 = no disease control) [1, 8] | Test B rating (100 = 100% disease control, 0 = no disease control) [2, 8] | Test E rating (100 = 100% disease control, 0 = no disease control) [3, 8] | Test F rating (100 = 100% disease control, 0 = no disease control) [4, 8] | Test G rating (100 = 100% disease control, 0 = no disease control) [5, 8] | Test H rating (100 = 100% disease control, 0 = no disease control) [6, 8]
1 | COc1cc(F)c(-c2c(-c3cc(OC)cc(OC)c3Cl)c(C)oc(=O)c2C)c(F)c1 [Compound 49] | 100 | 100 | 99 | 100 | 100 | 100 | 99 | – | – | – | – | – | – | – | – | – | – | – | – | –
2 | COc1cc(OC)cc(-c2cc(=O)oc(C)c2-c2ccc(F)cc2Cl)c1 [Compound 56] | 94 | 99 | 99 | 100 | 100 | 100 | 100 | – | – | – | – | – | – | – | – | – | – | – | – | –
3 | COc1cccc(-c2c(-c3ccc(F)cc3F)c(C)oc(=O)c2-c2ccccc2)c1 [Compound 29] | 99 | 93 | 64 | 99 | 32 | 100 | 55 | – | – | – | – | – | – | – | – | – | – | – | – | –
4 | COc1cc(OC)c(Cl)c(-c2c(-c3c(F)cccc3F)c(C)oc(=O)c2C)c1Cl [Compound 53] | 61 | 0 | 0 | 47 | 0 | 88 | 0 | – | – | – | – | – | – | – | – | – | – | – | – | –
5 | COc1cc(OC)cc(-c2c(-c3ccccc3F)noc(=O)c2-c2c(F)cc(F)cc2F)c1 [Compound 23, 4-(3,5-dimethoxyphenyl)-3-(2-fluorophenyl)-5-(2,4,6-trifluorophenyl)-6H-1,2-oxazin-6-one] | – | – | – | – | – | – | – | 100 | 93 | 95 | 99 | 9 | 100 | 0 | – | – | – | – | – | –
6 | COc1cccc(-c2c(-c3ccccc3F)c(C)oc(=O)c2-c2ccccc2)c1 [Compound 28] | 100 | 0 | 0 | 98 | 0 | 99 | 64 | – | – | – | – | – | – | – | – | – | – | – | – | –
7 | Cc1oc(=O)c(-c2ccccc2)c(-c2ccccc2Cl)c1-c1ccc(F)cc1F [Compound 31] | – | – | – | – | – | – | 0 | – | – | – | – | – | – | – | 100* % | 0* % | 0* % | 98* % | 96* % | 99* %
